Measurements published in patent US8580231B2, “Compositions and methods comprising magnetic resonance contrast agents” (Northwestern University, priority 2008, dated 2013).
Entries after “also recorded” stand apart in the source; their conditions may differ. Marks after values point to notes of the source that are not given here.

What was measured:
[1] = taken from Caravan et al.; cited from earlier work
[2] = Biodistribution study (Gd(III) in organs by ICP-MS); type: in vivo, mouse; details: mice, organs harvested 30 minute to 24 hour
[3] = test system: PR(+) T47D and PR(−) MDA-MB-231 xenografted tumors; details: previously reported (ref. 19); cited from earlier work
[4] = target: T1, progesterone receptor A ligand binding domain (amino acids 675-933) fused to GST (PR-LBD-GST) (Homo sapiens, UniProt P06401); test: Receptor binding to nPR (fluorescence polarization, Example 17)
T1 construct: purchased Invitrogen
T1 sequence (P06401 675-933): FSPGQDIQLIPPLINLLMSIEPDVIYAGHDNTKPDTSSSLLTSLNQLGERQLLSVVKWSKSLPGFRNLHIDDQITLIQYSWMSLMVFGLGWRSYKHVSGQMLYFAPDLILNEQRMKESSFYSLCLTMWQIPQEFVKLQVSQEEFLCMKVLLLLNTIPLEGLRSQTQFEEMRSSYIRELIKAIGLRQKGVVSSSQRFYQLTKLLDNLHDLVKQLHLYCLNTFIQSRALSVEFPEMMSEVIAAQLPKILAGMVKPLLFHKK

[5] = test system: PR(+) (T47D) human breast cancer cells; test: Cellular uptake studies (Example 17), PR(+) cells; type: cell-based; details: 0.125 mM for 1, 4, 10, 24 h or 0.25-2 mM for 4 h
Experimental: Contrast agents were dissolved in the appropriate medium (containing stripped FBS) for each cell line (T47D and MDA-MB-231) at concentrations of 2, 1, 0.5, 0.25, and 0.125 mM of contrast agent. For concentration-dependent cellular uptake, cells were incubated with 2, 1, 0.5, and 0.25 mM of each contrast agent for 4 h. For the time dependent cellular uptake, cells were incubated with 0.125 mM contrast agent for 1, 4, 10, and 24 h. After incubation, the media was removed, and the cells were rinsed twice with PBS and trypsinized. An aliquot was used for cell counting and the remaining portion was analyzed for Gd(III) content by ICP-MS. Each condition was done in triplicate.
To determine the cell permeability of the compounds, PR(+) (T47D) and PR(−) (MDA-MB-231) human breast cancer cells were incubated with 1a, 2a, 3a, and 4a. Time- and concentration-dependent experiments were performed to identify the optimal dose and incubation times of the agents (FIG. 16).

[6] = test system: PR(+) T47D and PR(−) MDA-MB-231 xenografted tumors; test: In vivo MR imaging of xenografted nude mice (contrast-to-noise ratio); parameters: species or system mouse; details: for change in tumor CNR over preinjection levels: 2 and 6 h postinjection; for change in tumor CNR over preinjection levels / CNR of PR(+) tumor compared to PR(−) tumor: intraperitoneal; for CNR of PR(+) tumor compared to PR(−) tumor: 0.15 mmGd/kg in DMSO
Experimental: Female Balb/C athymic nude mice were acquired from Harlan (Indianapolis, Ind.) and housed under pathogen free conditions. All animal studies were conducted at Northwestern University in accordance with the National Institutes of Health Guide for the Care and Use of Laboratory Animals and established institutional animal use and care protocols. Due to low circulating estradiol levels in nude mice, a 17β-estradiol pellet (Innovative Research of America, Sarasota, FA, 70-day release, 0.72 mg/pellet) was implanted subcutaneously in the nape of the neck to ensure growth of estrogen-dependent T47D cells. Two to seven days later, T47D and MDA-MB-231 ((1−2)×10^6) cells were suspended in Matrigel (1:1 volume) and injected subcutaneously into the rear flank (T47D cells on the right side and MDA-MB-231 cells on the left). Mice were monitored for tumor growth every two to three days after injection of cells. Mice were imaged two to three weeks after xenografting when tumors were palpable with a minimum weight of 20 mg (determined after tumor removal postimaging).
Xenografted nude mice were injected intraperitoneally (n=1 per compound) with each agent (0.15 mmGd/kg) dissolved in 50 μL, DMSO. During imaging, mice were maintained under anesthesia (1-3% isoflurane) but were allowed to wake up and recover between imaging time points. Tubing containing heated water was positioned under the mouse to keep a constant body temperature. All MR imaging was performed on a 89 mm bore size PharmaScan 7.05 T MR imager fitted with shielded gradient coils (Bruker BioSpin, Billerica, Mass., USA) using a RF RES 300 1H 089/038 quadrature transmit receive volume coil (Bruker BioSpin, Billerica, Mass., USA). […] Images were analyzed using ImageJ. Contrast-to-noise ratio (CNR) was calculated using the equation CNR=(SITissue−SImuscle)/σnoise where SITumor is the signal intensity in the tumor, SIMuscle is the signal intensity in the muscle, and σnoise is the standard deviation of the noise. CNRs were averaged over two to three axial slices in which the tumors were clearly demarcated.
To determine whether the water-soluble progesterone-conjugated agents would increase the contrast-to-noise ratio (CNR) of PR(+) tumors relative to PR(−) tumors in vivo, athymic nude mice with PR(+) and PR(−) xenografted tumors were injected intraperitoneally with 1a, 2a, or 3a dissolved in DMSO and imaged at 2 and 6 h postinjection. Intraperitoneal injection was chosen over subcutaneous injection because it yielded more consistent results in previous studies, and the parent compound, ProGlo, has been more extensively studied for its biodistribution after intraperitoneal injection. (19) In addition, while these agents are water-soluble, they were dissolved in DMSO to compare back to previous in vivo imaging with the insoluble ProGlo and the control agent 4a.(19)

[7] = test system: PR / pPRE-luciferase in T47D cells; test: Luciferase assay for nPR activation; type: cell-based, human; details: 24 h
Experimental: T47D cells were grown in phenol-free medium, and cells were trypsinized and plated in 24-well plate (50 000 cells/well). Incubation of cells with the pPRE-luciferase plasmid (100 ng/well, construct provided by Dr. Ken Korach, NIEHS, NIH), RSV-β-galactosidase (100 ng/well, provided by Dr. William T. Beck, University of Illinois at Chicago), and Lipofectamine 2000 (1 μL per well, Invitrogen, Carlsbad, Calif.) in Opti-MEM was performed overnight at 37° C. inside a humidified incubator. The cells were treated with 1a, 2a, 3a, and 4a for an additional 24 h.
To measure luciferase production, cells were lysed in 100 μL GME buffer (25 mM glycylglycine at pH 7.8, 15 mM MgSO4, 4 mM EGTA, 1 mM dithiothreitol, and 1% Triton X-100) and lysates were added to assay buffer (GME buffer, 16.5 mM KPO4, 2.2 mM ATP, and 1.1 mM dithiothreitol). Luciferase substrate was injected followed by a 30 s read by a FLUOstar OPTIMA (BMG Lab Tech, Offenburg, Germany). LacZ activity (50 μL lysate) was measured from cleavage of ONPG. The sample results were normalized to β-galactosidase to account for transfection efficiency by dividing the sum of the luciferase activity by the sum of the β-galactosidase activity. Fold change was calculated by taking the luciferase value, dividing by the β-galactosidase activity, and then dividing by the solvent control, which was set equal to one. […]

Compound	tissue distribution of Gd(III) (percentage per gram of tissue) [2]	cellular Gd(III) uptake [5]	change in tumor CNR over preinjection levels [6]	CNR of PR(+) tumor compared to PR(−) tumor ([6]; 6 h postinjection)	further results
CC(O)CN1CCN(CC(=O)[O-])CCN(CC(=O)[O-])CCN(CC(=O)[O-])CC1.[Gd+3] (centres unmarked) [Prohance]	–	–	–	–	Relaxivity [1]: 3.7* mM^−1s^−1
CCCCCCN1CCN(CC(=O)[O-])CCN(CC(=O)[O-])CCN(CC(=O)[O-])CC1.[Gd+3] [hexyl-DO3A-Gd(III)]	mainly end up in the liver and kidney	–	–	–	–
DO3A-Gd(III)	mainly end up in the liver and kidney	–	–	–	tumor CNR after injection [3]: only minimal increases in CNR over time
{2,2′,2″-(10-(2-(((1-(5-(2-(10,13-Dimethyl-3-oxo-2,3,6,7,8,9,10,11,12,13,14,15,16,17-tetradecahydro-1H-cyclopenta[a]phenanthren-17-yl)-2-oxoethoxy)pentyl)-1H-1,2,3-triazol-4-yl)methyl)amino)-2-oxoethyl)-1,4,7,10-tetraazacyclododecane-1,4,7-triyl)triacetate}gadolinium [Compound 1a]	–	increased slightly after 1 h and then stabilized	several-fold increase in CNR; also recorded: increased CNR by 2 h, but CNR had decreased by 6 h	significantly higher CNR	RBA, fold less than that of progesterone [4]: about 100 fold; CNR of PR(+) tumor compared to PR(−) tumor ([6]; 2 h postinjection): significantly higher CNR; fold change in CNR in the PR(+) tumors, percent higher than with ProGlo ([6]; 2 h time point, compared to preinjection CNR): 16%
{2,2′,2″-((10-((1-(5-(2-(10,13-Dimethyl-3-oxo-2,3,6,7,8,9,10,11,12,13,14,15,16,17-tetradecahydro-1H-cyclopenta[a]phenanthren-17-yl)-2-oxoethoxy)pentyl)-1H-1,2,3-triazol-4-yl)methyl)-1,4,7,10-tetraazacyclododecane-1,4,7-triyl)triacetate}gadolinium [Compound 2a]	–	time-dependent accumulation	slow increase in CNR over time	significantly higher CNR	PRE-mediated transcription (luciferase activity) [7]: lowest efficacy
